Test results reported in patent US9566262B2, “Itch suppression by fucoxanthin” (THE RITSUMEIKAN TRUST, priority 2015, dated 2017).
Entries after “also recorded” stand apart in the source; their conditions may differ.

Tests used:
[1] = tested on: bone marrow-derived mast cells (BMMCs); assay: Degranulation of BMMCs, β-hexosaminidase release after anti-DNP-IgE / DNP-HSA stimulation; format: cell-based, mice; conditions: pre-treated with 0.1 μM, 1 μM or 10 μM before DNP-HSA stimulation, vs DMSO
Protocol: The degranulation of BMMCs was evaluated by measuring β-hexosaminidase activity in the culture solution of the mature mast cells. Bone marrow cells obtained from 8-week-old female mice were cultured in a medium for conditioning containing interleukin-3 (IL-3) for 4 weeks to give mature mast cells. The mature mast cells thus prepared were cultured in 24-well plate (5×10^3 cells/well) overnight, and sensitized with 50 ng/mL anti-DNP-IgE (Sigma Chemicals) at 37° C. for 2 hours. The cells were rinsed by MT buffer (137 mmol/L NaCl, 2.7 mmol/L KCl, 1.8 mmol/L CaCl2, 1 mmol/L MgCl2.6H2O, 5.6 mmol/L glucose, 20 mmol/L HEPES, 0.1% BSA, pH7.3), and pre-treated with 0.1 μM, 1 μM or 10 μM fucoxanthin, or dimethyl sulfoxide (DMSO) for 10 minutes. Then, the cells were treated with 2.5 μg/mL DNP-labeled human serum albumin (Sigma Chemicals) at 37° C. for 30 minutes. After incubation, the supernatant was transferred to a 96-well plate and incubated with 3.3 mM p-nitrophenyl-2-acetamide-2-deoxy-β-glucopyranoside at 37° C. for 25 minutes. Absorbance at 405 nm was measured using microplate reader. The results are shown as percentage of total β-hexosaminidase.

NC/Nga mice [2] = assay: Swelling (length) of the auricular lymph node in NC/Nga mice; format: in vivo; conditions: topical application for 5 weeks, PiCl-sensitized, vs Vaseline
From the text: (§1) NC/Nga mice (5 weeks old, female) were purchased from Japan SLC, Inc. […] On day 12, day 19, day 26 and day 33 after starting application of Vaseline or fucoxanthin, 0.8% picryl chloride (PiCl) was further applied to the back skin of the mice. The behaviors of the mice were observed by video monitoring. On day 34 after starting application of Vaseline or fucoxanthin, bromodeoxyuridine (BrdU, Nacalai Tesque) (0.[…] weight) was intraperitoneally administered to the mice. At 5 weeks after starting application of Vaseline or fucoxanthin, the time each mouse spent for scratching behavior in 10 minutes was measured by video monitoring. Then, the mice were sacrificed and the auricular lymph node, blood and skin were obtained. Serum IgE content was determined by enzyme-linked immunosorbent assay (ELISA) using Mouse IgE Assay Kit (Morinaga Institute of Biological Science, Inc.). […] BrdU uptake was determined by ELISA using Cell Proliferation ELISA, BrdU (Colorimetric) (Roche Diagnostics K.K.). […] Also, serum IgE levels and swelling of the auricular lymph nodes of the mice were determined in the same manner as described in Example 2.

NC/Nga mice [3] = assay: BrdU uptake in auricular lymph node cells of NC/Nga mice (ELISA); format: in vivo; conditions: topical application for 5 weeks, BrdU i.p. on day 34, vs Vaseline
From the text: On day 12, day 19, day 26 and day 33 after starting application of Vaseline or fucoxanthin, 0.8% picryl chloride (PiCl) was further applied to the back skin of the mice. The behaviors of the mice were observed by video monitoring. On day 34 after starting application of Vaseline or fucoxanthin, bromodeoxyuridine (BrdU, Nacalai Tesque) ([…]) was intraperitoneally administered to the mice. At 5 weeks after starting application of Vaseline or fucoxanthin, the time each mouse spent for scratching behavior in 10 minutes was measured by video monitoring. Then, the mice were sacrificed and the auricular lymph node, blood and skin were obtained. Serum IgE content was determined by enzyme-linked immunosorbent assay (ELISA) using Mouse IgE Assay Kit (Morinaga Institute of Biological Science, Inc.). The auricular lymph node was digested with 0.1% trypsin/0.1% collagenase, the obtained dissociated cells were suspended by pipetting, and the enzyme reaction was stopped by adding Dulbecco's modified Eagle medium (DMEM) containing 10% fetal bovine serum (Wako Pure Chemical Industries, Ltd.). BrdU uptake was determined by ELISA using Cell Proliferation ELISA, BrdU (Colorimetric) (Roche Diagnostics K.K.).

NC/Nga mice [4] = assay: Serum IgE content by ELISA in NC/Nga mice; format: in vivo; conditions: topical application for 5 weeks, PiCl-sensitized, vs Vaseline
From the text: as §1

NC/Nga mice [5] = assay: Clinical symptoms of dermatitis in PiCl-sensitized NC/Nga mice; format: in vivo; conditions: topical application plus PiCl, at 5 weeks
Protocol: Next, we examined the effects of fucoxanthin and astaxanthin on clinical symptoms of dermatitis in NC/Nga mice. In the same manner as described in Example 2, fucoxanthin or astaxanthin and PiCl were applied to NC/Nga mice. […] In the same manner as described in Example 2, Vaseline, fucoxanthin or tacrolimus and PiCl were applied to NC/Nga mice. […] Also, serum IgE levels and swelling of the auricular lymph nodes of the mice were determined in the same manner as described in Example 2.

filaggrin (Flg) = assay: Immunohistochemical analysis of skin of NC/Nga mice; format: in vivo; conditions: topical treatment for 5 weeks, vs Vaseline
Protocol: (§2) Vaseline or fucoxanthin and PiCl were applied to the mice in the same manner as described in Example 2. At 5 weeks after starting application of Vaseline or fucoxanthin, the mice were sacrificed the mice skins were fixed with 4% paraformaldehyde and analyzed according to the method described in Kosaka, T. et al. (supra). The skin section (10 μm thick) was analyzed immunohistochemically using a rabbit anti-filaggrin antibody (Santa Cruz Biotechnology, Inc.) and a rabbit anti-loricrin antibody (Covance). Then, the sample was reacted with an FITC-conjugated anti-rabbit IgG IgG (Santa Cruz Biotechnology, Inc.).

loricrin (Lor) = assay: as above; format: in vivo; conditions: topical treatment for 5 weeks, vs Vaseline
Protocol: as §2

CC(=O)O[C@H]1CC(C)(C)C(=C=C/C(C)=C/C=C/C(C)=C/C=C/C=C(C)/C=C/C=C(\C)C(=O)C[C@@]23O[C@]2(C)C[C@@H](O)CC3(C)C)[C@](C)(O)C1 [fucoxanthin]
release of β-hexosaminidase (degranulation) [1]: suppressed release of β-hexosaminidase in a dose-dependent manner | swelling of the auricular lymph node (ear swelling) (NC/Nga mice [2]): neither ear swelling (FIG. 9A) nor serum IgE level (FIG. 9B) were affected; also recorded: failed to attenuate lymph inflammation; also recorded: not affected | BrdU uptake (cell proliferation in the auricular lymph node) (NC/Nga mice [3]): not affected | serum IgE level (NC/Nga mice [4]): neither ear swelling (FIG. 9A) nor serum IgE level (FIG. 9B) were affected; also recorded: did not vary | clinical symptoms of dermatitis (AD symptoms) (NC/Nga mice [5]): remarkably improved; also recorded: almost completely did; also recorded: ameliorated clinical symptom of dermatitis | filaggrin expression in the epidermis (immunohistochemistry) (filaggrin (Flg)): elevated; also recorded: abundantly localized in the stratum corneum | loricrin expression in the epidermis (immunohistochemistry) (loricrin (Lor)): elevated; also recorded: distributed in the whole skin
